ChEMBL document CHEMBL1201862, “PubChem BioAssay data set” (2004)
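The compound was tested at five concentrations on cells cultured in 96-well plates, with a 48-hour exposure period. At the GI50, growth is halved.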 The source made the active and inactive calls. Cut-off read from the data, not from the text of the source: active = GI50 up to about 1.1 µM and inactive = higher.

Columns and labels:
Assay in all cases: growth of human tumour cells (NCI), 48 h
[1] = test system: 786-0
[2] = test system: DU-145
[3] = test system: EKVX
[4] = test system: HCC 2998
[5] = test system: HOP-62
[6] = test system: HOP-92
[7] = test system: HT-29
[8] = test system: K562
[9] = test system: M14
[10] = test system: MDA-MB-231
[11] = test system: MDA-MB-435
[12] = test system: NCI-H23
[13] = test system: NCI-H522
[14] = test system: OVCAR-3
[15] = test system: PC-3
[16] = test system: SF-268
[17] = test system: SF-539
[18] = test system: SNB-19
[19] = test system: U-251
[20] = test system: UO-31

| SMILES | GI50 [1] | GI50 [2] | GI50 [3] | GI50 [4] | GI50 [5] | GI50 [6] | GI50 [7] | GI50 [8] | GI50 [9] | GI50 [10] | GI50 [11] | GI50 [12] | GI50 [13] | GI50 [14] | GI50 [15] | GI50 [16] | GI50 [17] | GI50 [18] | GI50 [19] | GI50 [20] |
| --- | --- | --- | --- | --- | --- | --- | --- | --- | --- | --- | --- | --- | --- | --- | --- | --- | --- | --- | --- | --- |
| COC(=O)C1=NN2c3ccccc3CN([C@@H](C)c3ccccc3)C(=O)[C@@H]2C1 | 41.2 µM (inactive) | 30.8 µM (inactive) | 24.6 µM (inactive) | 48.2 µM (inactive) | 57.7 µM (inactive) | 34.4 µM (inactive) | 44.1 µM (inactive) | 21.8 µM (inactive) | 16.5 µM (inactive) | 57 µM (inactive) | 16.6 µM (inactive) | 32.9 µM (inactive) | 21.7 µM (inactive) | 30.8 µM (inactive) | 31.4 µM (inactive) | 28.7 µM (inactive) | 50.7 µM (inactive) | 39.6 µM (inactive) | 40.7 µM (inactive) | 17.5 µM (inactive) |
| Cc1cccc(C)c1NC(=O)C(=O)CC(=O)c1sc(Nc2c(C)cccc2C)nc1C | > 100 µM (inactive) | > 100 µM (inactive) | > 100 µM (inactive) | > 100 µM (inactive) | > 100 µM (inactive) | > 100 µM (inactive) | > 100 µM (inactive) | > 100 µM (inactive) | > 100 µM (inactive) | > 100 µM (inactive) | > 100 µM (inactive) | > 100 µM (inactive) | > 100 µM (inactive) | > 100 µM (inactive) | > 100 µM (inactive) | > 100 µM (inactive) | > 100 µM (inactive) | > 100 µM (inactive) | > 100 µM (inactive) | 50.8 µM (inactive) |
| CC(C)=CCC[C@@H](C)C1=C(Nc2ccccc2Cl)C(=O)C(C)=C(O)C1=O | 1.81 µM (inactive) | 6.64 µM (inactive) | 3.12 µM (inactive) | 6.18 µM (inactive) | 3.45 µM (inactive) | 6.82 µM (inactive) | 3.56 µM (inactive) | 17.1 µM (inactive) | 6.15 µM (inactive) | 4.61 µM (inactive) | 4.85 µM (inactive) | 2.84 µM (inactive) | 2.57 µM (inactive) | 3.36 µM (inactive) | 4.85 µM (inactive) | 3.85 µM (inactive) | 3.79 µM (inactive) | 4.49 µM (inactive) | 4.27 µM (inactive) | 2.89 µM (inactive) |
| COc1ccc2oc(=O)c(-c3nc4ccccc4o3)cc2c1 | > 100 µM (inactive) | > 100 µM (inactive) | > 100 µM (inactive) | 55 µM (inactive) | 64.9 µM (inactive) | > 100 µM (inactive) | > 100 µM (inactive) | 69.5 µM (inactive) | > 100 µM (inactive) | 32.7 µM (inactive) | 16.7 µM (inactive) | > 100 µM (inactive) | 50.2 µM (inactive) | 59.4 µM (inactive) | > 100 µM (inactive) | > 100 µM (inactive) | > 100 µM (inactive) | > 100 µM (inactive) | > 100 µM (inactive) | > 100 µM (inactive) |
| CC[C@](O)(CC(=O)O[C@H]1C(=O)O[C@@H]2C[C@H]3C(C)=CC(=O)[C@@H](O)[C@]3(C)[C@H]3[C@@]4(O)OC[C@]32[C@@H]1[C@@H](C)[C@H]4O)C(C)C | < 0.01 µM (active) | < 0.01 µM (active) | < 0.01 µM (active) | < 0.01 µM (active) | < 0.01 µM (active) | < 0.01 µM (active) | < 0.01 µM (active) | < 0.01 µM (active) | < 0.01 µM (active) | < 0.01 µM (active) | < 0.01 µM (active) | < 0.01 µM (active) | < 0.01 µM (active) | < 0.01 µM (active) | < 0.01 µM (active) | < 0.01 µM (active) | < 0.01 µM (active) | < 0.01 µM (active) | < 0.01 µM (active) | < 0.0122 µM (active) |
| C=CCC(CNC(=O)OCc1ccccc1)O[Si](C)(C)C(C)(C)C (stereo not given) | 29.4 µM (inactive) | 36.5 µM (inactive) | 25.4 µM (inactive) | 39.5 µM (inactive) | 38.5 µM (inactive) | 26.2 µM (inactive) | 18 µM (inactive) | 23.6 µM (inactive) | 26.4 µM (inactive) | 17.3 µM (inactive) | 38.5 µM (inactive) | 55.5 µM (inactive) | 24.9 µM (inactive) | 31.6 µM (inactive) | 30.3 µM (inactive) | 45.3 µM (inactive) | 28.5 µM (inactive) | 40.3 µM (inactive) | 25.6 µM (inactive) | 22.2 µM (inactive) |
| COc1ccccc1NC(=S)NN=C(C)c1cccc(C(C)=NNC(=S)Nc2ccccc2OC)n1 | 6.64 µM (inactive) | 24 µM (inactive) | 24 µM (inactive) | > 100 µM (inactive) | 42.8 µM (inactive) | 21.7 µM (inactive) | 18 µM (inactive) | 20 µM (inactive) | 5.06 µM (inactive) | 5.16 µM (inactive) | 23 µM (inactive) | 33.9 µM (inactive) | 45.6 µM (inactive) | 7.87 µM (inactive) | 27 µM (inactive) | 15.9 µM (inactive) | 19.9 µM (inactive) | 77.4 µM (inactive) | 34.3 µM (inactive) | 20.6 µM (inactive) |
| CC1(C)CC(O)C2=C(O1)C(=O)c1ncccc1C2=O (stereo not given) | 1.87 µM (inactive) | 5.07 µM (inactive) | 2.54 µM (inactive) | 5.41 µM (inactive) | 1.85 µM (inactive) | 2.28 µM (inactive) | 3.05 µM (inactive) | 2.11 µM (inactive) | 1.96 µM (inactive) | 2.29 µM (inactive) | 1.71 µM (inactive) | 1.64 µM (inactive) | 1.29 µM (inactive) | 2.35 µM (inactive) | 2.9 µM (inactive) | 2 µM (inactive) | 1.84 µM (inactive) | 4.65 µM (inactive) | 1.75 µM (inactive) | 1.85 µM (inactive) |
| C/C=C/C1OC(O)(C(C)C(O)[C@H](C)C2OC(=O)/C(OC)=C/C(C)=C/[C@@H](C)[C@@H](O)[C@@H](C)C(O)C(C)C/C(C)=C/C=C/C2OC)C[C@@H](OC2CC(O)C(OC(N)=O)C(C)O2)C1C (stereo not given in full) | < 0.01 µM (active) | < 0.01 µM (active) | < 0.01 µM (active) | < 0.01 µM (active) | < 0.01 µM (active) | < 0.01 µM (active) | < 0.01 µM (active) | < 0.01 µM (active) | < 0.01 µM (active) | < 0.01 µM (active) | < 0.01 µM (active) | < 0.01 µM (active) | < 0.01 µM (active) | < 0.0182 µM (active) | < 0.01 µM (active) | < 0.01 µM (active) | < 0.01 µM (active) | < 0.01 µM (active) | < 0.0167 µM (active) | < 0.01 µM (active) |
| O=C1C=CC(=O)c2c(O)ccc(O)c21 [NAPHTHAZALIN] | 1.14 µM (inactive) | 14.8 µM (inactive) | 2.75 µM (inactive) | 4.66 µM (inactive) | 9.75 µM (inactive) | 1.69 µM (inactive) | 2.17 µM (inactive) | 0.425 µM (active) | 0.581 µM (active) | 2.22 µM (inactive) | 3.68 µM (inactive) | 2.61 µM (inactive) | 0.505 µM (active) | 2.09 µM (inactive) | 12.8 µM (inactive) | 2.52 µM (inactive) | 2.49 µM (inactive) | 8.41 µM (inactive) | 5.79 µM (inactive) | 2.11 µM (inactive) |
| O=C1CCCSCCCC(=O)CCCSCCC1 | > 100 µM (inactive) | > 100 µM (inactive) | > 100 µM (inactive) | > 100 µM (inactive) | > 100 µM (inactive) | > 100 µM (inactive) | > 100 µM (inactive) | > 100 µM (inactive) | > 100 µM (inactive) | > 100 µM (inactive) | > 100 µM (inactive) | > 100 µM (inactive) | > 100 µM (inactive) | > 100 µM (inactive) | > 100 µM (inactive) | > 100 µM (inactive) | > 100 µM (inactive) | > 100 µM (inactive) | > 100 µM (inactive) | > 100 µM (inactive) |
| O=C1c2ccccc2C(=O)c2c(NCCNC(=O)C3CCCN3)ccc(NCCNC(=O)C3CCCN3)c21 (stereo not given) | 0.219 µM (active) | 70.1 µM (inactive) | > 100 µM (inactive) | 35.9 µM (inactive) | 45 µM (inactive) | 41 µM (inactive) | 47.4 µM (inactive) | 19.2 µM (inactive) | > 100 µM (inactive) | 23.7 µM (inactive) | 55.8 µM (inactive) | 52.8 µM (inactive) | 19.9 µM (inactive) | 69.8 µM (inactive) | 67.9 µM (inactive) | 34.1 µM (inactive) | 44.6 µM (inactive) | 44.1 µM (inactive) | 37.2 µM (inactive) | 31.5 µM (inactive) |
| COc1cc(C=C2N=C(c3ccccc3)N(n3c(-c4ccccc4)nc4ccccc4c3=O)C2=O)cc(OC)c1OC | 21.8 µM (inactive) | 27.6 µM (inactive) | 23.8 µM (inactive) | 30.7 µM (inactive) | 13.6 µM (inactive) | 14.5 µM (inactive) | 31.8 µM (inactive) | 45.8 µM (inactive) | 27.2 µM (inactive) | 21.9 µM (inactive) | 24.3 µM (inactive) | 19.1 µM (inactive) | 20.1 µM (inactive) | 21.3 µM (inactive) | 31.1 µM (inactive) | 28.4 µM (inactive) | 18.7 µM (inactive) | 24.7 µM (inactive) | > 10 µM (inactive) | 31 µM (inactive) |
| CCCc1nc(Cl)c(Cl)c(Cl)n1 | 19.9 µM (inactive) | 35 µM (inactive) | 21.4 µM (inactive) | 0.556 µM (active) | 33.7 µM (inactive) | 21 µM (inactive) | > 47.6 µM (inactive) | 9.53 µM (inactive) | 25.4 µM (inactive) | 19.3 µM (inactive) | 20.1 µM (inactive) | 18.7 µM (inactive) | 12.4 µM (inactive) | 6.64 µM (inactive) | 0.426 µM (active) | 11.9 µM (inactive) | 26.9 µM (inactive) | 62.1 µM (inactive) | 14.7 µM (inactive) | 2.71 µM (inactive) |
